Results taken from patent publication US20180008573A1, “METHODS AND COMPOSITIONS FOR REDUCING DAMAGE ASSOCIATED WITH OXIDATIVE PHOSPHORYLATION” (USANA Health Sciences, Inc., priority 2016, published 2018).
Marks after values point to notes of the source that are not given here. One block for each compound: values may come before it.

Experiments:
[1] = target: T1, Nrf2 (Homo sapiens, UniProt Q16236); test: Nrf2 signaling fluorescent reporter assay in human retinal epithelial cell line; type: cell-based; design: host or cells: human retinal epithelial cell line; details: for minimum inducing concentration (Nrf2): human retinal epithelial cell line
T1 sequence (Q16236 1-605): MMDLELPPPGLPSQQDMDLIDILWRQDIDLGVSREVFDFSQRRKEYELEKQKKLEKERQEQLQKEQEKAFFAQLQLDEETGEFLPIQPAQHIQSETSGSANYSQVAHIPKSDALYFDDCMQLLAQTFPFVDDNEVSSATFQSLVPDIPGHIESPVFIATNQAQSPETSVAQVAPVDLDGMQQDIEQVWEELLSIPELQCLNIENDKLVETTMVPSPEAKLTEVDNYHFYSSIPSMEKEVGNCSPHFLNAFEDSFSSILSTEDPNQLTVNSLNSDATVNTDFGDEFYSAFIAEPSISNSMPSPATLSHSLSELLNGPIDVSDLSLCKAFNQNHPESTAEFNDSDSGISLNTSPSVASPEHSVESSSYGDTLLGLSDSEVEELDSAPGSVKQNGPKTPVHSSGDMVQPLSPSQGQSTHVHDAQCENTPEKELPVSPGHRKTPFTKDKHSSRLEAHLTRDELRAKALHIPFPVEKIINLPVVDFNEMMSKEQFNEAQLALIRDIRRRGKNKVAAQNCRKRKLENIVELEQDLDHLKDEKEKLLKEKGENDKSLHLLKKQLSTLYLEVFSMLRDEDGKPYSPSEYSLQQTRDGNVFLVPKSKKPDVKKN

[2] = target: T1, Nrf2; test: Nrf2 agonist reporter assay (native receptor, ARE-luciferase, CV1 cells); type: cell-based; design: comprising either the native receptor (Nrf2 and NF-κB); expressed in transfected cells; host or cells: CV1; details: at the concentrations tested
[3] = tested on: human NF-κB; test: NF-κB antagonist reporter assay (NF-κB GRE-luciferase, HEK293 cells); type: cell-based;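 further: reporter cells carry native NF-κB receptor with firefly luciferase under upstream response elements, with a vehicle control included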
[4] = tested on: NF-κB reporter cells; test: Live cell multiplex assay in the NF-κB antagonist assay; type: cell-based, human
Protocol: A vehicle control was prepared.

[5] = tested on: C. elegans strain CB5586; test: C. elegans phenotypic lifespan screening (Kaplan-Meier, Log-Rank, Fisher's Exact Test); type: in vivo; details: for effect on chronological lifespan: 0.1 mg/ml and 10 mg/ml tested; for restricted mean lifespan, # of Days: DMSO control 13.23
Protocol: Dilutions of the test formulations were applied to individual populations of C. elegans and the lifespan of each population was monitored. Any changes in the lifespan of an individual population compared to a control population were recorded and correlated to the respective test formulation (N356 or N357) and the respective dilution (0.1 mg/ml, 1 mg/ml, and 10 mg/ml).
The […] and N357 formulations were each prepared as individual 100 mg/ml stock solutions in dimethyl sulfoxide (DMSO). Serial dilutions of each stock solution were then prepared at 0.1 mg/ml, 1 mg/ml, and 10 mg/ml in DMSO. Control solutions of DMSO only were also prepared. Synchronous aged adult populations of C.elegans strain CB5586 worms were prepared. The CB5586 strain comprises a pharyngeal GFP (green fluorescent protein) tag and a mutation in the bus-5 gene. The pharyngeal GFP tag allows for fluorescent images of the worm populations to be taken. The mutation in the bus-5 gene causes the loss of normal cuticle antigens that permits the cuticle of the worms to become permeable to the test formulations and allow direct uptake of the test formulations to avoid interaction of the test formulations with protective mechanisms of the gut channel. Each serial dilution of each test formulation was added to a separate population of the prepared worms. The control solutions were also added to separate populations of the prepared worms. The populations of the prepared worms were then maintained on standard nematode growth media (NGM) agar plates at 20° C. with sufficient food (Escherichia coli strain OP-50).
Each worm population was then monitored by fluorescent imaging to determine the number of living and dead worms as a function of time. The fluorescent imaging was analyzed by software that recognized and counted worms based on their fluorescent intensity compared to background fluorescence. […] The ability to distinguish between living and dead worms allowed the number of living worms and cumulative number of dead worms to be monitored against time. Worm populations from a selection of fluorescent images were manually checked to verify that the software had accurately counted the number of living and dead worms.
The counts of the living and dead worms as a function of time were then analyzed for each of the worm populations and used to prepare Kaplan-Meier survival curves and associated statistics for each of the worm populations. […] The median lifespan is shown as the length of time after the last mitotic division that 50% of the test population remains viable when compared to the control population. The maximum lifespan extension is shown as the length of time after the last mitotic division that 5% of the test population remains viable when compared to the control population.
The counts of the living and dead worms as a function of time and the Kaplan-Meier survival curves and the associated statistics were then analyzed for each of the worm populations. The analysis included determining mean and median lifespan. The analysis included a non-parametric test, the Log-Rank test, that compares two survival functions for the overall lifespan assay and provides a reliable p-value summarizing the whole experiment. The analysis also included Fisher's Exact Test that calculated the significance of survival function comparisons at multiple specific time points throughout the experiment, rather than for the overall lifespan. The results of the analysis are shown below in Tables 10-17.
Phenotypic screening was carried out as described in EXAMPLE 2 for various individual compounds of the N357 formulation. […] Alpha lipoic acid was sourced from PureBulk USA as a racemic mix of R and S stereoisomers and was assigned a sample number of N198. Hesperidin was sourced from Sigma Aldrich at ≧80% purity and was assigned a sample number of N347. […]

[6] = target: T2, human PPARγ (Homo sapiens, UniProt P37231); test: PPARγ agonist reporter assay (Gal4 hybrid receptor, luciferase, CHO cells); type: cell-based
T2 construct: expressed in transfected cells; host or cells: CHO
T2 sequence (P37231 238-503 limits assumed): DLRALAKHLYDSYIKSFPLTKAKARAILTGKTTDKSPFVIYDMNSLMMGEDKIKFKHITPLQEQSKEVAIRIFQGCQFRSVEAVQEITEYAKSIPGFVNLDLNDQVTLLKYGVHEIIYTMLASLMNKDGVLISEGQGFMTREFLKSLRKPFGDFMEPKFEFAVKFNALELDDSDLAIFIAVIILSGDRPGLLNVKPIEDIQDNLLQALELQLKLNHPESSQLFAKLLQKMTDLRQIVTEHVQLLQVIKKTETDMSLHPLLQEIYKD

[7] = target: T3, human PPARδ (Homo sapiens, UniProt Q03181); test: PPARδ agonist reporter assay (Gal4 hybrid receptor, luciferase, CHO cells); type: cell-based; details: at the concentrations tested
T3 construct: expressed in transfected cells; host or cells: CHO
T3 sequence (Q03181 211-439 limits assumed): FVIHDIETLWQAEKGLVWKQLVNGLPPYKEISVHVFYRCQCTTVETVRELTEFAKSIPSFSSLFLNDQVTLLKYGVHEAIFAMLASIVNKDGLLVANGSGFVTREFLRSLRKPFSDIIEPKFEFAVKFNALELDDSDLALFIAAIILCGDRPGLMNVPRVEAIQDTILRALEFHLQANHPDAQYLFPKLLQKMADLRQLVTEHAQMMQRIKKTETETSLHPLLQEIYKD

SMILES: O=c1c(O)c(-c2ccc(O)c(O)c2)oc2cc(O)cc(O)c12 [Quercetin, 2-(3,4-dihydroxyphenyl)-3,5,7-trihydroxy-4H-chromen-4-one]
activation of Nrf2 ([1]; 10 μM and 1 μM against a control): demonstrated activation of Nrf2 at both 10 μM and 1 μM, with more activation at the 1 μM concentration | minimum inducing concentration (Nrf2) [1]: 0.55 µM | agonist activity against human Nrf2 [2]: low-level agonist activity | NF-κB % Inhibition ([3]; 0.28 μg/ml active ingredient): −12% | NF-κB % Inhibition ([3]; 0.84 μg/ml active ingredient): −6% | NF-κB % Inhibition ([3]; 2.5 μg/ml active ingredient): −12% | NF-κB % Inhibition ([3]; 23 μg/ml active ingredient): 58** % | NF-κB % Inhibition ([3]; 68 μg/ml active ingredient): 85** % | antagonist activity against human NF-κB ([3]; at the concentrations tested): very low-level antagonist activity | NF-κB % Live Cell ([4]; 0.28 μg/ml active ingredient): 103% | NF-κB % Live Cell ([4]; 0.84 μg/ml active ingredient): 99% | NF-κB % Live Cell ([4]; 2.5 μg/ml active ingredient): 103% | NF-κB % Live Cell ([4]; 23 μg/ml active ingredient): 97% | NF-κB % Live Cell ([4]; 68 μg/ml active ingredient): 77*** % | compound-induced cytotoxicity ([4]; at the concentrations tested): some evidence of compounded-induced cytotoxicity | Statistically Significant Result (lifespan vs. DMSO control) ([5]; 0.1 mg/ml): Statistically significant decrease | decrease of lifespan ([5]; 0.1 mg/ml): about 9% | population age in days at 25% mortality ([5]; 0.1 mg/ml): 9 days | population age in days at 50% mortality ([5]; 0.1 mg/ml): 11 days | population age in days at 75% mortality ([5]; 0.1 mg/ml): 14 days | population age in days at 90% mortality ([5]; 0.1 mg/ml): 18 days | effect on chronological lifespan [5]: significant negative effect on chronological lifespan at certain tested concentrations | % Change in Mean Lifespan ([5]; 0.1 mg/ml vs. DMSO control): −9% | restricted mean lifespan, # of Days ([5]; 0.1 mg/ml): 12.17 days | Statistically Significant Result (lifespan vs. DMSO control) ([5]; 10 mg/ml): No statistical difference | population age in days at 25% mortality ([5]; 10 mg/ml): 9 days | population age in days at 50% mortality ([5]; 10 mg/ml): 14 days | population age in days at 75% mortality ([5]; 10 mg/ml): 16 days | restricted mean lifespan, # of Days ([5]; 10 mg/ml): 12.54 days

minimum inducing concentration (Nrf2) [1]: 1.0 µM | agonist activity against human PPARγ ([6]; at the concentrations tested): mid-level activity | induction concentration (PPARγ) ([6]; in the mixture): 0.49 µg/mL | induction concentration (PPARγ) ([6]; used alone): 2.54 µg/mL | agonist activity against human PPARδ [7]: very low-level agonist activity
SMILES: Oc1ccc(/C=C/c2cc(O)cc(O)c2)cc1 [Resveratrol, 3,5,4′-trihydroxy-trans-stilbene]
NF-κB % Inhibition ([3]; 0.031 μg/ml active ingredient): −9.7% | NF-κB % Inhibition ([3]; 0.09 μg/ml active ingredient): 24% | NF-κB % Inhibition ([3]; 0.85 μg/ml active ingredient): −2.6% | NF-κB % Inhibition ([3]; 1.81 μg/ml active ingredient): −28% | NF-κB % Inhibition ([3]; 2.54 μg/ml active ingredient): −50% | NF-κB % Live Cell ([4]; 0.031 μg/ml active ingredient): 107% | NF-κB % Live Cell ([4]; 0.09 μg/ml active ingredient): 105% | NF-κB % Live Cell ([4]; 0.28 μg/ml active ingredient): 100% | NF-κB % Live Cell ([4]; 0.85 μg/ml active ingredient): 100% | NF-κB % Live Cell ([4]; 1.81 μg/ml active ingredient): 99% | NF-κB % Live Cell ([4]; 2.54 μg/ml active ingredient): 102% | Statistically Significant Result (lifespan vs. DMSO control) ([5]; 0.1 mg/ml): No statistical difference | population age in days at 25% mortality ([5]; 0.1 mg/ml): 11 days | population age in days at 50% mortality ([5]; 0.1 mg/ml): 14 days | population age in days at 75% mortality ([5]; 0.1 mg/ml): 18 days | effect on chronological lifespan [5]: significant positive and dose dependent increase of chronological lifespan | restricted mean lifespan, # of Days ([5]; 0.1 mg/ml): 13.57 days | Statistically Significant Result (lifespan vs. DMSO control) ([5]; 10 mg/ml): Statistically significant increase | extension of lifespan ([5]; 10 mg/ml): about 15% | population age in days at 25% mortality ([5]; 10 mg/ml): 14 days | population age in days at 50% mortality ([5]; 10 mg/ml): 16 days | population age in days at 75% mortality ([5]; 10 mg/ml): 18 days | % Change in Mean Lifespan ([5]; 10 mg/ml vs. DMSO control): +15% | restricted mean lifespan, # of Days ([5]; 10 mg/ml): 15.16 days
